Laboratory results published in paper PMC11170711, “Pharmacophore Virtual Screening Identifies Riboflavin as an Inhibitor of the Schistosome Cathepsin B1 Protease with Antiparasitic Activity” (ACS Omega, 2024).

Molecular target: T1, human cathepsin B (Homo sapiens, UniProt P07858)
T1 construct: gene CTSB
Experiment: fluorogenic Z-RR-AMC hydrolysis assay with recombinant enzyme, without and with […] Triton X-[…] with detergent
Assay type: biochemical

## Cc1cc2nc3c(=O)[nH]c(=O)nc-3n(C[C@H](O)[C@H](O)[C@H](O)CO)c2cc1C [RBF, riboflavin]
  IC50: 12.1 ± 1.86 µM
